In patent US11026931B2, “Methods for the administration of certain VMAT2 inhibitors” (Neurocrine Biosciences, Inc., priority 2018, dated 2021):

How the values were obtained:
human VMAT1 transporter = target: T1, human VMAT1 transporter (Homo sapiens, UniProt P54219); assay: Uptake in cells expressing VMAT1; type: cell-based; details: for inhibition of uptake through VMAT1: cells expressing VMAT1, test compounds at concentrations up to 10 μM; for effect on the uptake of monoamines through VMAT1: compared to reserpine
T1 construct: expressed in transfected cells
T1 sequence (P54219 1-525): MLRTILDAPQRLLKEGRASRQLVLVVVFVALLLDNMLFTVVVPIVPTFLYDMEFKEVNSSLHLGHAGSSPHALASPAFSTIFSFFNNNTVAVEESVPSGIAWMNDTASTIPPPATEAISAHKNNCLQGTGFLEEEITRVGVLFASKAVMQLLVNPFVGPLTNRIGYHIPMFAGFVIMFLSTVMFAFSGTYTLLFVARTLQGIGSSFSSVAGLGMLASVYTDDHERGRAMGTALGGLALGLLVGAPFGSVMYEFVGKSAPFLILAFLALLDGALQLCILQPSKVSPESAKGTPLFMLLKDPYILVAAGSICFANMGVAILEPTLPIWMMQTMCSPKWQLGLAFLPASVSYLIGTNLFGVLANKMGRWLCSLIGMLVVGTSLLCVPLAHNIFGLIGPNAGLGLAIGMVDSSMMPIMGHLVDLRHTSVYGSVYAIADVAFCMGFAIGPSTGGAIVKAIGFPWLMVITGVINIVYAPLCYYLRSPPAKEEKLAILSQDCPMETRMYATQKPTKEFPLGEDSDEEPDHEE

[1] = Plasma concentrations of circulating metabolites of VBZ; type: in vivo; details: metabolites formed from VBZ
[2] = tested on: ptosis (adrenergic activation); assay: In vivo surrogate measure: ptosis
[3] = tested on: prolactin release from the pituitary, modulated through the D2 dopamine receptor; assay: In vivo surrogate measure: prolactin release
[4] = Analysis of hypersensitivity and dermatological reactions (case reports); type: in vivo
From the text: A total of 17 cases of hypersensitivity reaction and/or dermatological findings and evidence for possible causal relationship with VBZ have been reported either spontaneously (6) or after solicitation (11). Of these 17 cases, 14 cases had both hypersensitivity reaction with dermatological findings (5 were serious and 9 were non-serious).

[5] = tested on: dopamine, serotonin and adrenergic receptor subtypes; assay: Radioligand binding assays for monoamine receptor subtypes; details: for interaction with D1 and D2 receptors: radioligand binding assays and broad panel screen
[6] = of the 14 cases with hypersensitivity reaction and dermatological findings

SMILES	inhibition of uptake through VMAT1 (human VMAT1 transporter)	effect on the uptake of monoamines through VMAT1 (human VMAT1 transporter)	induction of ptosis [2]	also measured
COc1cc2c(cc1OC)[C@H]1C[C@@H](OC(=O)[C@@H](N)C(C)(C)O)[C@H](CC(C)C)CN1CC2 [NBI-136110]	no significant inhibitory activity	no significant effect	–	half-lives of plasma concentration decline [1]: half-lives similar to VBZ
COC(=O)[C@H]1[C@H]2C[C@@H]3c4[nH]c5cc(OC)ccc5c4CCN3C[C@H]2C[C@@H](OC(=O)c2cc(OC)c(OC)c(OC)c2)[C@@H]1OC [reserpine, reference compound]	substantially inhibited uptake through VMAT1	–	–	–
COc1cc2c(cc1OC)C1CC(=O)C(CC(C)C)CN1CC2 (racemic) [TBZ, 1,3,4,6,7, 11b-hexahydro-9,1O-dimethoxy-3-(2-methylpropyl)-2H-benzo(a)quinolizin-2-one, reference compound]	no significant inhibitory activity	no significant effect	induced ptosis in an equivalent manner	increase in serum prolactin levels [3]: increase in serum prolactin levels
COc1cc2c(cc1OC)[C@H]1C[C@@H](OC(=O)[C@@H](N)C(C)C)[C@H](CC(C)C)CN1CC2 [Valbenazine, (S)-2-amino-3-methyl-butyric acid (2R, 3R,11 bR)-3-isobutyl-9,10-dimethoxy-1,3,4,6,7,11b-hexahydro-2H-pyrido[2,1-a]isoquinolin-2-yl ester]	no significant inhibitory activity	no significant effect	induced ptosis in an equivalent manner	association with hypersensitivity reactions ([4]; case reports received through 10 Oct. 2017): may be associated with hypersensitivity reactions with or without dermatological reactions; non-serious cases [4, 6]: 9 cases; serious cases [4, 6]: 5 cases; cases with both hypersensitivity reaction and dermatological findings ([4]; of the 17 cases): 14 cases
COc1cc2c(cc1OC)[C@H]1C[C@@H](O)[C@H](CC(C)C)CN1CC2 [R,R,R-DHTBZ, (2R, 3R,11bR)-3-isobutyl-9,10-dimethoxy-1,3,4,6,7,11b-hexahydro-2H-pyrido[2,1-a]isoquinolin-2-ol]	no significant inhibitory activity	no significant effect	induced ptosis in an equivalent manner	specificity for the VMAT2 transporter ([5]; versus monoamine receptor subtypes and transporters): high specificity; increase in serum prolactin levels [3]: induced a similar increase in serum prolactin levels as TBZ; half-lives of plasma concentration decline [1]: half-lives similar to VBZ
COc1cc2c(cc1OC)[C@@H]1C[C@@H](O)[C@@H](CC(C)C)CN1CC2 [R,S,S-DHTBZ]	–	–	–	interaction with D1 and D2 receptors [5]: interact with D1 and D2 receptors
COc1cc2c(cc1OC)[C@@H]1C[C@H](O)[C@@H](CC(C)C)CN1CC2 [S,S,S-DHTBZ]	–	–	–	interaction with D1 and D2 receptors [5]: interact with D1 and D2 receptors
